Results published in US11111245B2, “Derivatives of N-cycloalkyl/heterocycloalkyl-4-(imidazo[1,2-a]pyridine)pyrimidin-2-amine as therapeutic agents” (Aucentra Therapeutics Pty Ltd, priority 2017, dated 2021).

Legend:
[1] = system: leukemia cell lines; experiment: Resazurin cell viability assay on leukemia cell lines (72 h growth inhibition, GI50); assay type: cell-based; conditions: Homo sapiens, MV4-11 cells
Summary of the method: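 Viability is measured by MTT in solid tumour cells and by resazurin in leukaemia cells. Reported values are GI50s calculated with non-linear regression analysis.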

[2] = system: MDA-MB-468; experiment: MTT cell viability assay, MDA-MB-468 breast cancer cell line (72 h); assay type: cell-based; conditions: Homo sapiens, MDA-MB-468, 72 h, read-out: 72 h Antiproliferative activity, GI50 (μmol/L) ± SD
Protocol: (§1) Compounds from Example 1 were subjected to a standard MTT (3-(4,5-dimethylthiazol-2-yl)-2,5-diphenyltetrazolium bromide) and resazurin assays on solid tumour cell lines and leukemia cell lines, respectively, as previously reported (Wang S et al., J Med Chem 47:1662-1675, 2004 and Diab S. et al. CheMedChem 9:962-972, 2014). Compound concentrations required to inhibit 50% of cell growth (GI50) were calculated using non-linear regression analysis.

[3] = system: MOLM13; experiment: Resazurin cell viability assay, MOLM13 leukaemia cell line (72 h); assay type: cell-based; conditions: Homo sapiens, MOLM-13, MOLM13, 72 h, read-out: 72 h Antiproliferative activity, GI50 (μmol/L) ± SD
Protocol: as §1

[4] = system: A2780; experiment: MTT cell viability assay, A2780 ovarian cancer cell line (72 h); assay type: cell-based; conditions: Homo sapiens, A2780, 72 h, read-out: 72 h Antiproliferative activity, GI50 (μmol/L) ± SD
Protocol: as §1

[5] = biological target: CDK4/D1 (Homo sapiens, UniProt P11802); experiment: ADP Glo Kinase assay CDK4/D1; assay type: biochemical; conditions: CDK4D1; read-out: CDK inhibition, Ki (μM) CDK4D1
Summary of the method: (§2)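 Luminescent ADP detection measured activity after a 40 min, 37° C ATP-initiated reaction, using RB-CTF for CDK4/D1 and CDK6/D3 and RBER-IRStide for CDK9/T1. Controls lacked or contained kinase. Values: IC50 by four-parameter nonlinear regression, Ki from ATP Km.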

[6] = biological target: T1, CDKs and other kinases (Homo sapiens, UniProt P50613); experiment: Radiometric kinase assay (Eurofins Pharma Discovery or Reaction Biology Corporation Kinase Profiler); assay type: biochemical; conditions: CDK7H; read-out: CDK inhibition, Ki (μM) CDK7H
T1 construct: other: CDK7H; residual activity (%) at 10 μM CDK7H; compound at 10 μM
Summary of the method: (§3)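 Other CDKs and further kinases were profiled externally by radiometric assay. In-house ADP Glo assays covered CDK4/D1 and CDK6/D3 (RB-CTF substrate, pH 7.5 Tris buffer with MgCl2, DTT, BSA) and CDK9/T1 (RBER-IRStide substrate), 40 min at 37° C.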

[7] = biological target: T2, CDKs and other kinases (Homo sapiens, UniProt P06493); experiment: as above; assay type: biochemical; conditions: CDK1B; read-out: CDK inhibition, Ki (μM) CDK1B
T2 construct: other: CDK1B; residual activity (%) at 10 μM CDK1B; compound at 10 μM
Summary of the method: as §3

[8] = biological target: T3, CDKs and other kinases (Homo sapiens, UniProt P24941); experiment: as above; assay type: biochemical; conditions: CDK2A; read-out: CDK inhibition, Ki (μM) CDK2A
T3 construct: other: CDK2A; residual activity (%) at 10 μM CDK2A; compound at 10 μM
Summary of the method: as §3

[9] = system: MDA-MB-231; experiment: MTT cell viability assay, MDA-MB-231 breast cancer cell line (72 h); assay type: cell-based; conditions: Homo sapiens, MDA-MB-231, 72 h, read-out: 72 h Antiproliferative activity, GI50 (μmol/L) ± SD
Protocol: as §1

[10] = biological target: CDK9/T1 (Homo sapiens, UniProt P50750); experiment: ADP Glo Kinase assay CDK9/T1; assay type: biochemical; conditions: CDK9T1; read-out: CDK inhibition, Ki (μM) CDK9T1
Summary of the method: as §2

[11] = system: MDA-MB-453; experiment: MTT cell viability assay, MDA-MB-453 breast cancer cell line (72 h); assay type: cell-based; conditions: Homo sapiens, MDA-MB-453, 72 h, read-out: 72 h Antiproliferative activity, GI50 (μmol/L) ± SD
Protocol: as §1

[12] = system: MCF-7; experiment: MTT cell viability assay, MCF-7 breast cancer cell line (72 h); assay type: cell-based; conditions: Homo sapiens, MCF7, MCF-7, 72 h, read-out: 72 h Antiproliferative activity, GI50 (μmol/L) ± SD
Protocol: as §1

[13] = system: NB4; experiment: Resazurin cell viability assay, NB4 leukaemia cell line (72 h); assay type: cell-based; conditions: Homo sapiens, NB-4, NB4, 72 h, read-out: 72 h Antiproliferative activity, GI50 (μmol/L) ± SD
Protocol: as §1

[14] = system: PC3; experiment: MTT cell viability assay, PC3 prostate cancer cell line (72 h); assay type: cell-based; conditions: Homo sapiens, PC-3, PC3, 72 h, read-out: 72 h Antiproliferative activity, GI50 (μmol/L) ± SD
Protocol: as §1

[15] = system: LNCap; experiment: MTT cell viability assay, LNCap prostate cancer cell line (72 h); assay type: cell-based; conditions: Homo sapiens, read-out: 72 h Antiproliferative activity, GI50 (μmol/L) ± SD
Protocol: as §1

[16] = biological target: CDK6/D3 (Homo sapiens, UniProt Q00534); experiment: ADP Glo Kinase assay CDK6/D3; assay type: biochemical; conditions: CDK6D3; read-out: CDK inhibition, Ki (μM) CDK6D3
Summary of the method: as §2

[17] = system: U937; experiment: Resazurin cell viability assay, U937 leukaemia cell line (72 h); assay type: cell-based; conditions: Homo sapiens, U-937, U937, 72 h, read-out: 72 h Antiproliferative activity, GI50 (μmol/L) ± SD
Protocol: as §1

[18] = system: T47D; experiment: MTT cell viability assay, T47D breast cancer cell line (72 h); assay type: cell-based; conditions: Homo sapiens, read-out: 72 h Antiproliferative activity, GI50 (μmol/L) ± SD
Protocol: as §1

CDK6/D3, sequence (Q00534 whole entry): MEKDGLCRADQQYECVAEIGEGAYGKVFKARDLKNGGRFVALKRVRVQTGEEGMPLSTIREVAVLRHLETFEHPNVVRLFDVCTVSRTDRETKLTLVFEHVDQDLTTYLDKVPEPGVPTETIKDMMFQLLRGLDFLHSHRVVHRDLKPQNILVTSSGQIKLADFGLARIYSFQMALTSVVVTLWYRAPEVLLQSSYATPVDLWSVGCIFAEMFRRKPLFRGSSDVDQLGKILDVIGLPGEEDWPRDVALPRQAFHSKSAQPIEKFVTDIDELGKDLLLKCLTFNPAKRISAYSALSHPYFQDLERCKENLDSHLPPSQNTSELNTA
CDK6/D3, sequence (P30281 whole entry partner): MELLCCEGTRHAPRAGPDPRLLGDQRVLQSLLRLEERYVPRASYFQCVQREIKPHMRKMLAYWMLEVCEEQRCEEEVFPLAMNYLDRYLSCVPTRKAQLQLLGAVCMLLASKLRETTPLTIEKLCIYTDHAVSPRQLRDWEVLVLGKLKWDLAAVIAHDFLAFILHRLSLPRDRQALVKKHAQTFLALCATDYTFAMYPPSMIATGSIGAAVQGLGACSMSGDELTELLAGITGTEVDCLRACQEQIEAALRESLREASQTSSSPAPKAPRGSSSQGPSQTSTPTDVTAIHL
T1 sequence (P50613 whole entry): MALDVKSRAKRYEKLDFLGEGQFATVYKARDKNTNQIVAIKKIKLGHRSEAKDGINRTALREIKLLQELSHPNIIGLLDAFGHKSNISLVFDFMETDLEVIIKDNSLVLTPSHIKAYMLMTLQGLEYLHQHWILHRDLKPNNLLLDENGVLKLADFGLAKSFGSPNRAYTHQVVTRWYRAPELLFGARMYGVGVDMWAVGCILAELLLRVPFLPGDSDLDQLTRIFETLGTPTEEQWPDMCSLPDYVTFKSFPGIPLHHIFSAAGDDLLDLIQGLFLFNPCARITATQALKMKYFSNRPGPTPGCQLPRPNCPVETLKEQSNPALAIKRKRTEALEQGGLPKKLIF
CDK4/D1, sequence (P11802 whole entry): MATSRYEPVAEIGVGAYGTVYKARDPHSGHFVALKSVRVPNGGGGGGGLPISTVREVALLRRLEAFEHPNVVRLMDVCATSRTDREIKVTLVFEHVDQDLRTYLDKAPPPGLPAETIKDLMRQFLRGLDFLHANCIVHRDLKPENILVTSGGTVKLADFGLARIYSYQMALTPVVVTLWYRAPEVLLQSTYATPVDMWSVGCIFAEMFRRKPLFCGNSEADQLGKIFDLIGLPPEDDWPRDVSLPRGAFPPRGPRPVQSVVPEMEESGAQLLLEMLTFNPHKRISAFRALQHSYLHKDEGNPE
CDK4/D1, sequence (P24385 whole entry partner): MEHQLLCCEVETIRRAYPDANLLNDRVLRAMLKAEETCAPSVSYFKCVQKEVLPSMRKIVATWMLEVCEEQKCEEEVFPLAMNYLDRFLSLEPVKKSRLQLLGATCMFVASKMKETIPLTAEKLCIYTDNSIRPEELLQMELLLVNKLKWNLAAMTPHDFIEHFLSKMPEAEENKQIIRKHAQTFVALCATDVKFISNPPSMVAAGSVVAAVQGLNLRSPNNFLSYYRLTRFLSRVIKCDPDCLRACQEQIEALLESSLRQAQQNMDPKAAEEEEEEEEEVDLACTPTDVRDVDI
CDK9/T1, sequence (P50750 whole entry): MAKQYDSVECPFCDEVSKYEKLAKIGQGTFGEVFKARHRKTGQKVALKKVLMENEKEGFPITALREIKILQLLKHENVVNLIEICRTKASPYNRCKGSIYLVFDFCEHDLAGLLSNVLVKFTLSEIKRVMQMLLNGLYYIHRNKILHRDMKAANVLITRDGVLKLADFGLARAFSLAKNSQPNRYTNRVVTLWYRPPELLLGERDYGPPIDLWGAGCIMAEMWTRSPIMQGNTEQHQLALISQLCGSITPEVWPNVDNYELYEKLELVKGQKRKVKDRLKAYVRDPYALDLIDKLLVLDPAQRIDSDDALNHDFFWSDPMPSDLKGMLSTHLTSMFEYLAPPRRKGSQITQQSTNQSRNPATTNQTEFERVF
CDK9/T1, sequence (O60563 whole entry partner): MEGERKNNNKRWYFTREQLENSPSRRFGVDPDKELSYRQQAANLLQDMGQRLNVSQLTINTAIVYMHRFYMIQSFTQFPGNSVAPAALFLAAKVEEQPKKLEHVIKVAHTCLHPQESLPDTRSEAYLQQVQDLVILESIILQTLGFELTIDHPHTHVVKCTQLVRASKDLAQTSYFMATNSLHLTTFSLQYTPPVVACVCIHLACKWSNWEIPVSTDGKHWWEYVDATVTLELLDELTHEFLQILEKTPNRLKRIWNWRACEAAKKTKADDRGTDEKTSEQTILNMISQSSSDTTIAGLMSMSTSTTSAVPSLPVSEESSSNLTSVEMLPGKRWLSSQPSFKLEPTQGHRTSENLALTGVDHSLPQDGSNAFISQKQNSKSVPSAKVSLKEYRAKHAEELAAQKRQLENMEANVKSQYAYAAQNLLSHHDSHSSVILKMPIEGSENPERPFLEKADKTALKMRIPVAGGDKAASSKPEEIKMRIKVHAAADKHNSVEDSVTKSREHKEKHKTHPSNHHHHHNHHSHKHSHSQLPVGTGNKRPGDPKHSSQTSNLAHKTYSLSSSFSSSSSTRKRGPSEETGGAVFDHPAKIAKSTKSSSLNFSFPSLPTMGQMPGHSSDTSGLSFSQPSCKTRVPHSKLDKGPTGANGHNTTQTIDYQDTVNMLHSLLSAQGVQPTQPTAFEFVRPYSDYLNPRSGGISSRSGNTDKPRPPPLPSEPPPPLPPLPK
T2 sequence (P06493 whole entry): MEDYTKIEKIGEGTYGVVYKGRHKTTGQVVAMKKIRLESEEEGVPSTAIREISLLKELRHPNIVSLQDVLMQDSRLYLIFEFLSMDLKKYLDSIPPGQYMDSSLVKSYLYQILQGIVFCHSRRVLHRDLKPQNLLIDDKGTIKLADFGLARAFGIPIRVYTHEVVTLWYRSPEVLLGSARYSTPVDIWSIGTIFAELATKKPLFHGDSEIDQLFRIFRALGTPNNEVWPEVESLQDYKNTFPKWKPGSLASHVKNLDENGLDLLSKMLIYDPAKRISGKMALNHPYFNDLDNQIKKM

With `Cc1cnc(N[C@H]2CC[C@H](N)CC2)nc1-c1cnc2ccc(-c3ccccc3)cn12` [Compound 10, (1r,4r)-N^1-(5-Methyl-4-(6-phenylimidazo[1,2-a]pyridin-3-yl)pyrimidin-2-yl)cyclohexane-1,4-diamine] the GI50 [1] was 0.059 ± 0.008 µM, the GI50 [2] was 0.42 ± 0.07 µmol/L and the GI50 [3] was 0.019 ± 0.001 µmol/L. The GI50 [4] was 0.278 ± 0.032 µmol/L, the Ki [5] was 2.62 µM and the Ki [6] was 0.6 µM. It also gave a Ki [7] of 1.53 µM, a Ki [8] of 0.43 µM and a GI50 [9] of 0.418 ± 0.123 µmol/L. For the same molecule, the Ki [10] was 0.008 µM, the GI50 [11] was 0.049 ± 0.012 µmol/L and the GI50 [12] was 0.247 ± 0.014 µmol/L. For the same molecule, the GI50 [13] was 0.153 ± 0.051 µmol/L, the GI50 [14] was 0.289 ± 0.098 µmol/L and the GI50 [15] was 0.202 ± 0.052 µmol/L. It also gave a Ki [16] of 1.54 µM, a GI50 [17] of 0.156 ± 0.05 µmol/L and a GI50 [18] of 0.834 ± 0.066 µmol/L.
